Laboratory results as given in US20210317092A1 (BAYER PHARMA AKTIENGESELLSCHAFT, priority 2016, published 2021).

Assays:
[1] = biological target: T1, native human Bradykinin B1 receptor (Homo sapiens, UniProt P46663); assay: Calcium flux Assay (FLIPR) with human fibroblasts expressing Bradykinin B1 receptor (hB1 IMR-90); type: cell-based; conditions: IMR-90 human fibroblasts expressing native Bradykinin B1 receptor
T1 construct: which express native human Bradykinin B1 receptor after induction with human IL-10; Coriell Institute; host or cells: IMR-90 human foetal lung fibroblasts, cytokine-induced
T1 sequence (P46663 1-353): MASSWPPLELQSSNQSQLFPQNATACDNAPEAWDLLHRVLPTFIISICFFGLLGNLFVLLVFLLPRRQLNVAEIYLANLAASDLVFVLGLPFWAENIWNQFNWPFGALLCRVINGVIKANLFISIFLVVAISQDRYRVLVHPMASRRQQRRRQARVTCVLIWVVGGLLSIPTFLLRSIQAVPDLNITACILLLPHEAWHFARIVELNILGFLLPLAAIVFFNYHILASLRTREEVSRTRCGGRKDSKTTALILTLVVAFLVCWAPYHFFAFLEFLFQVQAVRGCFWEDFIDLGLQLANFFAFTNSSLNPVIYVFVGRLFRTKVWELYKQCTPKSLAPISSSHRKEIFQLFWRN
In short: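 IMR-90 human foetal lung fibroblasts induced with 0.35 ng/mL […] for 3 h, Fluo-4/AM-loaded, preincubated with compound (8 concentrations, triplicate) for 30 min at 28 °C, then challenged with Lys-(Des-Arg)-bradykinin at EC90. Ca2+ fluorescence was read at 538 nm; full inhibition set by 20 µM Lys-(Des-Arg-Leu)-bradykinin; IC50 derived.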

[2] = test system: IL-1B and des-Arg9-bradykinin (DABK) induced paw oedema; assay: Rat paw oedema in vivo model; conditions: p.o., p < 0.05 versus vehicle (6.45 ± 1.14)
Experimental: Rat Paw Oedema In Vivo Model
Male Sprague Dawley rats, approximately 250 g body weight, were used. The compound examples were administered orally in the vehicle as described in “Rat CFA in vivo model”, supra. Rats were treated orally (p.o.) with a solution of 5 mL/kg bodyweight of the vehicle only or 5 mL/kg bodyweight of a solution containing the vehicle plus the compound in a dose as indicated in Table 4. Rats received an intraplantar injection of IL-1B (5 μg in 20 μL) and des-Arg9-bradykinin (DABK; 10 μg in 20 μL) at 20 and 40 minutes after compound treatment, respectively. Paw oedema was measured by water displacement using a plethysmometer (Ugo Basile, Gemonio, Italy). Paw oedema measurement was performed before compound administration (baseline) and subsequently at 20, 40 and 60 minutes after DABK injection. Paw oedema was calculated by subtracting the baseline value to post-DABK treatment values for each individual and at each time point. Data were analysed by calculating the area under the paw oedema time curve for each individual (0-60 minutes post-DABK). The effect of the compound example, relative to that of the vehicle, was analysed by performing a one-way ANOVA followed by a Dunnett's post-hoc test. […] The mean and standard deviation were calculated for each treatment group for graphical representations.

[3] = test system: CFA-induced mechanical hyperalgesia; assay: Rat CFA in vivo model (mechanical hyperalgesia, paw withdrawal threshold); conditions: dosed 1 h before CFA and 24 h later, mean ± S.D.
Experimental: Male Sprague Dawley rats were used. Mechanical hyperalgesia was induced by injecting 25 μL of Complete Freund's Adjuvant (CFA) into the plantar surface of one hind paw. Mechanical hyperalgesia was measured using the Pressure Application Measurement apparatus (Ugo Basile, Gemonio, Italy). Briefly, a linearly increasing pressure was applied to an area of ˜ 50 mm2 of the plantar side of the hind paw until a behavioural response (paw withdrawal) was observed or until the pressure reached 1000 gf. The pressure at which the behavioural response occurred was recorded as the “Paw Withdrawal Threshold” (PWT). Both CFA-injected and contralateral PWTs were determined for each rat, in each treatment group and for the vehicle group at each time point of the studies. Each compound example was administered orally in the vehicle solution of dimethylsulfoxide (DMSO), Polyethylenglycol (PEG) and 2-Hydroxypropyl-beta-cyclodextrin (HPCD) (v/v/v=3:20:77). Rats received a first dose as specified in Table 3 in a solution of 5 mL/kg bodyweight application volume 1 hour before CFA injection and a second dose 24 hours later. Mechanical hyperalgesia testing was performed approximately 2 hours before CFA injection, then 2 and 4 hours after the second dose of compound example (i.e. 26 and 28 hours after CFA treatment). Animals in the vehicle group were treated in the identical way like the other groups but without compound in the orally applied solution. Data were expressed as the mean±S.D. Area Under the Curve (AUC) of PWTs (defined in table 3 as “AUC of Paw withdrawal threshold (AUC 0-4 hours) post-vehicle” with respect to vehicle group or “AUC of Paw withdrawal threshold (AUC 0-4 hours) post-drug” with respect to the compound example). Data were analysed by performing a one-way ANOVA followed by a Dunnett's post hoc test. For p values less than 0.05 the results were deemed to be statistically significant.

IC50 [1] [nM]	Compound	AUC of Paw Oedema (AUC 0-1 hour post DABK) ([2]; 10 mg/kg)	AUC of Paw Oedema (AUC 0-1 hour post DABK) ([2]; 30 mg/kg)	AUC of Paw withdrawal threshold (AUC 0-4 hours) post-drug ([3]; 3 mg/kg p.o., p < 0.05 vs vehicle (1083 ± 93 gf))	AUC of Paw withdrawal threshold (AUC 0-4 hours) post-drug ([3]; 10 mg/kg p.o., p < 0.01 vs vehicle (1083 ± 93 gf))	AUC of Paw withdrawal threshold (AUC 0-4 hours) post-drug ([3]; 30 mg/kg p.o., p < 0.0001 vs vehicle (1083 ± 93 gf))
14.2	COc1ccc(-c2ccc(NC(=O)C3(c4cccc(Cl)c4)CC3)cc2-c2nnn[nH]2)cc1OC [Example 1, 1-(3-Chlorophenyl)-N-[3′,4′-dimethoxy-2-(1H-tetrazol-5-yl)biphenyl-4-yl]cyclopropanecarboxamide]					
14.9	CCOc1ccc(-c2ccc(NC(=O)C3(c4cccc(Cl)c4)CC3)cc2-c2nnn[nH]2)cn1 [Example 253, 1-(3-Chlorophenyl)-N-[4-(6-ethoxypyridin-3-yl)-3-(1H-tetrazol-5-yl)phenyl]cyclopropanecarboxamide]	3.24 ± 2.73 (*)	3.67 ± 2.35 (*)	1415 ± 274 gf (*)	1439 ± 310 gf (**)	1649 ± 301 gf (***)
